Article PMC4818591 (ChemMedChem, 2015)

Columns and labels:
[1] = tested on: BxPC3 pancreatic cancer cells; assay: Apoptosis induction, BxPC3; assay type: cell-based; conditions: BxPC3, data not shown
[2] = tested on: L3.6pl pancreatic cancer cells; assay: Apoptosis by Hoechst staining and PARP cleavage, L3.6pl; assay type: cell-based; conditions: 10 μM, 24 h
HDAC2 = HDAC2 (Homo sapiens, UniProt Q92769); assay: HDAC2 isozyme inhibition; assay type: biochemical; conditions: for SI HDAC2/6: selectivity index
HDAC3 = HDAC3 (Homo sapiens, UniProt O15379); assay: HDAC3 isozyme inhibition; assay type: biochemical; conditions: for SI HDAC3/6: selectivity index
HDAC10 = biological target: T1, HDAC10 (Homo sapiens, UniProt Q969S8); assay: HDAC10 isozyme inhibition; assay type: biochemical; conditions: for SI HDAC10/6: selectivity index
T1 sequence (Q969S8 1-669): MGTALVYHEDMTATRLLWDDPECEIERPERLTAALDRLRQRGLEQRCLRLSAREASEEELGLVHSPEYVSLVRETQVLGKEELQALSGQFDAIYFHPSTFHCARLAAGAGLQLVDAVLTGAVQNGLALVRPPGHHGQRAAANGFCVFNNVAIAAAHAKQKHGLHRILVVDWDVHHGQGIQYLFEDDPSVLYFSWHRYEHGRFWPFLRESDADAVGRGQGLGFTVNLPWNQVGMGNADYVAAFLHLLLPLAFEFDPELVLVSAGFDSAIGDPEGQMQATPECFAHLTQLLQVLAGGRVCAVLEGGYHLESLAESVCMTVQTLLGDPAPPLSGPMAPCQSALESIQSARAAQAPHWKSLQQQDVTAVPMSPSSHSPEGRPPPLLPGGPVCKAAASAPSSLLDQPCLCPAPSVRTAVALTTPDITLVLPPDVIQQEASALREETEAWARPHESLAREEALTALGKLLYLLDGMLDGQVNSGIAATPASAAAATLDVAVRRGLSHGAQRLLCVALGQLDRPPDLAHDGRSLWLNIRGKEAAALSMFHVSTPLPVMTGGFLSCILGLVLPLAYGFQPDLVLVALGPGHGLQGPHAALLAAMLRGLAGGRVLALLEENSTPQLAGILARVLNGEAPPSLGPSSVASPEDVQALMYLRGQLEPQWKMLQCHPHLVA

HDAC1 = HDAC1 (Homo sapiens, UniProt Q13547); assay: HDAC1 isozyme inhibition; assay type: biochemical; conditions: for SI HDAC1/6: selectivity index
[3] = tested on: L3.6pl pancreatic cancer cells; assay: Growth inhibition, MTS cell proliferation assay, L3.6pl; assay type: cell-based; conditions: Homo sapiens, 72 h, read-out: L3.6pl GI50
HDAC6 = biological target: T2, HDAC6 (Homo sapiens, UniProt Q9UBN7); assay: HDAC6 isozyme inhibition; assay type: biochemical; conditions: read-out: HDAC Isoform, IC50, Class II, 6; duplicate, 10-dose IC50 mode, 3-fold serial dilution starting at 30 μM; average ± standard deviation
T2 sequence (Q9UBN7 1-1215): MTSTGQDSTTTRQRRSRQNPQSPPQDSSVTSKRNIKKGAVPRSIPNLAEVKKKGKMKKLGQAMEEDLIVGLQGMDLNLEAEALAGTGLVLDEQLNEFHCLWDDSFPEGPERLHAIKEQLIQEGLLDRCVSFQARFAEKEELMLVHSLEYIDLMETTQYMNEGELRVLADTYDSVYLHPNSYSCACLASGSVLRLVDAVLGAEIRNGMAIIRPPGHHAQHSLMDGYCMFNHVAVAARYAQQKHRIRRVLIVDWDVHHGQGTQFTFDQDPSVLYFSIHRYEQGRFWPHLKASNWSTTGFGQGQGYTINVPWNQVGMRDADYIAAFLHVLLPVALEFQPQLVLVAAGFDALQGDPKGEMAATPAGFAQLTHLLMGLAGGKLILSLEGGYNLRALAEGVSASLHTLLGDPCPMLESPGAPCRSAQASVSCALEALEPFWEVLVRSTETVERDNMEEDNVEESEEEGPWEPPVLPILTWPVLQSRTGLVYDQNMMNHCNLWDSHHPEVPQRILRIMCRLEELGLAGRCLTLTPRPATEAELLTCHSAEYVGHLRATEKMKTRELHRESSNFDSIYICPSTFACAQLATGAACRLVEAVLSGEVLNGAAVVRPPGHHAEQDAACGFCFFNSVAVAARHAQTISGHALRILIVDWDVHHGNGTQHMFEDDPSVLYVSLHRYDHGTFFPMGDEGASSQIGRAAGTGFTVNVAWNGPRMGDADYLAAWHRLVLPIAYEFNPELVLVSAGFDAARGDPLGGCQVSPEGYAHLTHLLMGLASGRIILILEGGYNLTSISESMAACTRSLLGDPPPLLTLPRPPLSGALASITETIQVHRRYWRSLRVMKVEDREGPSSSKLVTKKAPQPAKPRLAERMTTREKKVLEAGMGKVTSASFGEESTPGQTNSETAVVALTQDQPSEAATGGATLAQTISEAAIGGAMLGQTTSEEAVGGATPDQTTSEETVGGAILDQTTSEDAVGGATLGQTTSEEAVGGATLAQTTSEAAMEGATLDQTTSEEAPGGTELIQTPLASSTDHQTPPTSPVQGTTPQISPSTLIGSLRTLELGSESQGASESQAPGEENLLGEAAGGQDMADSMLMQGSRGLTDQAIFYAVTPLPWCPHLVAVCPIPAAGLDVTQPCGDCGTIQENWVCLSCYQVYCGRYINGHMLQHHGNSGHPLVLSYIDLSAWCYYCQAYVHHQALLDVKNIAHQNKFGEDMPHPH

[4] = tested on: BxPC3 subcutaneous xenograft; conditions: BxPC3 subcutaneous xenograft mouse model; cited from earlier work

Chain of HDAC3 (O15379 whole entry): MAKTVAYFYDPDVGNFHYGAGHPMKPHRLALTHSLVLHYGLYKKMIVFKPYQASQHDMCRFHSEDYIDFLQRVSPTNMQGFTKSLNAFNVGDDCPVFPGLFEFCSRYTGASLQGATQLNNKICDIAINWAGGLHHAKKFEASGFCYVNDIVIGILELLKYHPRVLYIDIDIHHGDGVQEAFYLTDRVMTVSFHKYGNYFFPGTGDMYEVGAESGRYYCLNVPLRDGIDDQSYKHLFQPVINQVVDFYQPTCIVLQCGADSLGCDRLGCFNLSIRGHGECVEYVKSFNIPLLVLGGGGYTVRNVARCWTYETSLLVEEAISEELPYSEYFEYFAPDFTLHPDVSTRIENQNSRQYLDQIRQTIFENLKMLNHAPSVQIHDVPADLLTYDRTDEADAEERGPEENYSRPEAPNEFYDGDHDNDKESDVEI
Chain of HDAC3 (Q9Y618 395-489 partner limits assumed): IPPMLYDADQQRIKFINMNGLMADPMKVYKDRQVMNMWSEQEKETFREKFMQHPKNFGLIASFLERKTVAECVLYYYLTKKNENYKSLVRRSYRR
Chain of HDAC1 (Q13547 whole entry): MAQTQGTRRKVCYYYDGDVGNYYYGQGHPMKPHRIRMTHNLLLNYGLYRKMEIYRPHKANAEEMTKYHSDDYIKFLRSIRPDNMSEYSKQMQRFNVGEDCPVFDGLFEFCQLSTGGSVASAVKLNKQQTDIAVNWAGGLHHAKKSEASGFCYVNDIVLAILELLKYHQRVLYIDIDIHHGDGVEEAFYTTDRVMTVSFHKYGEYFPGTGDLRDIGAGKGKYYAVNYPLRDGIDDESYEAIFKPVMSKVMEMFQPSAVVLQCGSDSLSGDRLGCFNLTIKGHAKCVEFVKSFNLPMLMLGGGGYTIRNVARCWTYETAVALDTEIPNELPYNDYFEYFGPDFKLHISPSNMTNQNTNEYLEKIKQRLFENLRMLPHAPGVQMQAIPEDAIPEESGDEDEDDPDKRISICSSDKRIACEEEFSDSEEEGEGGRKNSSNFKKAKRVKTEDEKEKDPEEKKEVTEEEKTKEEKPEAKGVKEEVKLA
Chain of HDAC2 (Q92769 whole entry): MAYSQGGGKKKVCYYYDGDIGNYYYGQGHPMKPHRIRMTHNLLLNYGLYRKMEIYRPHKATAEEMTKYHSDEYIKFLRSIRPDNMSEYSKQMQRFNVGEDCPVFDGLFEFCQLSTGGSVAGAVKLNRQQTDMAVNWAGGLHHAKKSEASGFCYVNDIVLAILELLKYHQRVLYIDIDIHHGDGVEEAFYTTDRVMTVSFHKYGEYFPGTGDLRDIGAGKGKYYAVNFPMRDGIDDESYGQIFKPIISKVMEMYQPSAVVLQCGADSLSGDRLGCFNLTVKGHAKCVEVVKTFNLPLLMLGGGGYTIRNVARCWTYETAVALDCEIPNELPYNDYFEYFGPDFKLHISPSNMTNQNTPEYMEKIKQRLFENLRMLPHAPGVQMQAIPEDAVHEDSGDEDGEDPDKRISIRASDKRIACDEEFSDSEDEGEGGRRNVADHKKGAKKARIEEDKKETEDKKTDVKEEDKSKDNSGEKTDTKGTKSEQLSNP

SI HDAC2/6 (HDAC2) | SI HDAC3/6 (HDAC3) | SI HDAC10/6 (HDAC10) | SI HDAC1/6 (HDAC1) | GI50 [3] [nM] | IC50 (HDAC6) [nM] | IC50 (HDAC2; read-out: HDAC Isoform, IC50, Class I, 2, singlet, 10-dose IC50 mode, 3-fold serial dilution starting at 30 μM, >50000 = no inhibition at 50 μM) [nM] | IC50 (HDAC3; read-out: HDAC Isoform, IC50, Class I, 3, singlet, 10-dose IC50 mode, 3-fold serial dilution starting at 30 μM, >50000 = no inhibition at 50 μM) [nM] | IC50 (HDAC10; read-out: HDAC Isoform, IC50, Class II, 10, singlet, 10-dose IC50 mode, 3-fold serial dilution starting at 30 μM, >50000 = no inhibition at 50 μM) [nM] | IC50 (HDAC1; read-out: HDAC Isoform, IC50, Class I, 1, singlet, 10-dose IC50 mode, 3-fold serial dilution starting at 30 μM, >50000 = no inhibition at 50 μM) [nM] | Compound | induction of apoptosis [1] | induction of apoptosis (Hoechst staining, PARP cleavage) [2] | apoptosis and tumor growth [4]
15 | 11 | 10 | 4.3 | 1300 |  |  |  |  |  | O=C(CCCc1cc(C(=O)NO)no1)Nc1nc(-c2ccccc2)cs1 [Compound 1, 5-[3-[N-(4-Phenylthiazol-2-yl)carbamoyl]propyl]isoxazole-3-carbohydroxamic Acid] | none of compounds 1, 2, or 4 induced apoptosis | effectively induced apoptosis | 
37 | 10 | 13 | 10 |  | 31 ± 3.4 | 1140 | 320 | 407 | 307 | O=C(CCc1cc(C(=O)NO)no1)Nc1nc(-c2ccccc2)cs1 [Compound 2, 5-[2-[N-(4-Phenylthiazol-2-yl)carbamoyl]ethyl]isoxazole-3-carbohydroxyamic Acid] | none of compounds 1, 2, or 4 induced apoptosis | effectively induced apoptosis | 
17 | 7.2 | 6.6 | 4.1 |  |  |  |  |  |  | CCOC(=O)Nc1ccc(-c2csc(NC(=O)CCCc3cc(C(=O)NO)no3)n2)cc1 [Compound 4, N-[4-[2-[4-[3-(N-Hydroxycarbamoyl)isoxazol-5-yl]butyrylamino]thiazol-4-yl]phenyl]carbamic Acid Ethyl Ester] | none of compounds 1, 2, or 4 induced apoptosis | effectively induced apoptosis | 
 |  |  |  |  |  |  |  |  |  | Cc1[nH]c2ccccc2c1CCNCc1ccc(/C=C/C(=O)NO)cc1 [panobinostat] |  |  | promote apoptosis and reduce tumor growth
